Reference: article PMC5814162, “Anticoagulants inhibit proteolytic clearance of plasma amyloid beta” (Oncotarget, 2017)

How the values were obtained:
[1] = system: plasma Aβ42 (FXII-FVII pathway); experiment: Plasma Aβ42 level in mice given synthetic Aβ42 after anticoagulant treatment (ELISA); type: in vivo; conditions: male C57BL/6 mice, anticoagulant once daily for 5 days (EP 0.1 and 0.5 mg/kg i.p.; DGT 22.5 and 45 mg/kg p.o.), Aβ42 40 μg/kg i.p. 1 h after final dose, blood 6 h later, vs vehicle, mean of n = 3, 'up to' over the two doses
Protocol: All experiments were approved by the Institutional Animal Care and Use Committee at the Roswell Park Cancer Institute under protocol 1022M. All mice were housed in individually ventilated pathogen-free cage systems equipped with HEPA filtered air supply and reverse osmosis purified water in a centralized vivarium facility. The facility is controlled with fully automated sensors for light (12-hour dark - 12-hour light cycle), temperature (70°F ± 2°F), humidity and airflow. All mice had free access to standard rodent diet (sterilizable Teklad #2018, with 6% fat and alfalfa free). C57BL/6NTac mice (male) were purchased from Taconic and used in two experiments. In the first experiment, mice at 8-9 weeks of age were treated with vehicle or an anticoagulant once daily for 5 days, and 1 h after the final treatment, the mice were treated with a single dose of Aβ42, followed by blood draw 6 h later. Blood was collected from the mice by cardiac puncture at the time of sacrifice by carbon dioxide and was collected into K3 EDTA-containing tubes (Multivette 600 from Sarstedt), from which plasma samples were prepared. […] Plasma concentrations of Aβ were determined by ELISA, which either detects both Aβ40 and Aβ42 [53] or specifically measures each peptide. […] Plasma concentration of FI was also measured by ELISA using a kit from GenWay Biotech. […]

FXII-FVII pathway [2] = experiment: FXII-FVII pathway activation in J20 mice and WT littermates, effect of EP (Western blotting, FI by ELISA); type: in vivo; conditions: EP 0.5 mg/kg i.p. once daily 5 days; for effect of EP on coagulation factor activation in J20 mice: blood 6 h after final treatment; for effect of EP on plasma FI level in WT littermates: ELISA
Protocol: (§1) J20 mice were purchased from the Mutant Mouse Resource & Research Centers (MMRRC) via the Jackson Laboratory. Hemizygous male J20 mice in C57BL/6J background were bred with WT female mice (C57BL/6J, also from Jackson Laboratory). F1 hemizygous J20 mice were identified by PCR genotyping based on the Jackson Laboratory protocol (https://www/jax.org/strain/006293) and used for experiments. J20 mice and their WT littermates (at the age of 1, 3 and 6 months, male and female) were treated with EP or vehicle i.p. once daily for 5 days, and at 6 h after the last treatment, blood was drawn from the mice.
(§2) Plasma concentrations of Aβ were determined by ELISA, which either detects both Aβ40 and Aβ42 [53] or specifically measures each peptide. In the latter case, ELISA kits from Invitrogen (KHB3481 and KHB3441) were used. Plasma concentration of FI was also measured by ELISA using a kit from GenWay Biotech. The commercial kits were used by following the manufacturers’ instructions.
(§3) Each plasma sample (7.5 μl of plasma per sample) was mixed with 4x loading dye, heated at 95°C for 5 min, and resolved by SDS-PAGE. The separated proteins were transferred to polyvinylidene fluoride membrane, probed with specific antibodies, and detected using Luminata Classico or Luminata Cresendo (Millipore).

plasma Aβ42 = experiment: Plasma Aβ42 level in J20 mice and WT littermates, ELISA specific for Aβ42; type: in vivo; conditions: 3 months of age, EP 0.5 mg/kg i.p. once daily 5 days
Protocol: as §1, §2

FXII-FVII pathway [3] = experiment: Plasma coagulation factor activation in mice treated with EP and/or Aβ40 (Western blotting, FI by ELISA); type: in vivo; conditions: male C57BL/6 mice; EP 0.5 mg/kg i.p. once daily 5 days, then Aβ40 40 μg/kg i.p.; blood 6 h later
Protocol: All experiments were approved by the Institutional Animal Care and Use Committee at the Roswell Park Cancer Institute under protocol 1022M. All mice were housed in individually ventilated pathogen-free cage systems equipped with HEPA filtered air supply and reverse osmosis purified water in a centralized vivarium facility. The facility is controlled with fully automated sensors for light (12-hour dark – 12-hour light cycle), temperature (70°F ± 2°F), humidity and airflow. All mice had free access to standard rodent diet (sterilizable Teklad #2018, with 6% fat and alfalfa free). C57BL/6NTac mice (male) were purchased from Taconic and used in two experiments. […]
(§4) Plasma concentrations of Aβ were determined by ELISA, which either detects both Aβ40 and Aβ42 [53] or specifically measures each peptide. […] Plasma concentration of FI was also measured by ELISA using a kit from GenWay Biotech. […]
as §3

[4] = system: plasma Aβ40 / endogenous Aβ (FXII-FVII pathway); experiment: Plasma Aβ level in mice treated with EP and/or Aβ40 (ELISA); type: in vivo; conditions: male C57BL/6 mice, EP 0.5 mg/kg i.p. once daily 5 days, n = 3
Protocol: All experiments were approved by the Institutional Animal Care and Use Committee at the Roswell Park Cancer Institute under protocol 1022M. All mice were housed in individually ventilated pathogen-free cage systems equipped with HEPA filtered air supply and reverse osmosis purified water in a centralized vivarium facility. The facility is controlled with fully automated sensors for light (12-hour dark – 12-hour light cycle), temperature (70°F ± 2°F), humidity and airflow. All mice had free access to standard rodent diet (sterilizable Teklad #2018, with 6% fat and alfalfa free). C57BL/6NTac mice (male) were purchased from Taconic and used in two experiments. In the first experiment, mice at 8–9 weeks of age were treated with vehicle or an anticoagulant once daily for 5 days, and 1 h after the final treatment, the mice were treated with a single dose of Aβ42, followed by blood draw 6 h later. Blood was collected from the mice by cardiac puncture at the time of sacrifice by carbon dioxide and was collected into K3 EDTA-containing tubes (Multivette 600 from Sarstedt), from which plasma samples were prepared. […]
as §4

[5] = system: brain astrocyte activation and Aβ accumulation; conditions: APP23 mice; EP ∼2.5 mg/kg, i.p., 3 times weekly for 6 months; cited from earlier work
Description: (§5) By inhibiting the FXII-FVII pathway, anticoagulants present an interesting dichotomy in impacting AD: Inhibiting procoagulant activity, potentially slowing or ameliorating AD, but also inhibiting plasma Aβ degradation, potentially contributing to brain Aβ accumulation. Indeed, increased coagulation is implicated in AD [42], but there is also evidence that peripheral Aβ moves to the brain [43]. The exact effect of anticoagulants on AD remains unclear. Treatment of AD mice (APP23 mice) with EP (∼2.5 mg/kg, i.p., 3 times weekly) for 6 months reduced brain astrocyte activation and Aβ accumulat ...

[6] = system: brain amyloid plaque load; conditions: Tg2576 mice; chronic treatment with EP at the same dose regimen (∼2.5 mg/kg, i.p., 3 times weekly); cited from earlier work
Description: as §5

plasma Aβ40 = experiment: Plasma Aβ40 level in J20 mice and WT littermates, ELISA specific for Aβ40; type: in vivo; conditions: 3 months of age, EP 0.5 mg/kg i.p. once daily 5 days
Protocol: as §1, §2

plasma Aβ = experiment: Plasma Aβ level in J20 mice and WT littermates, ELISA measuring both Aβ40 and Aβ42; type: in vivo; conditions: EP 0.5 mg/kg i.p. once daily 5 days
Protocol: as §1, §2

## [H]/N=C(/N)c1ccc(NCc2nc3cc(C(=O)N(CCC(=O)O)c4ccccn4)ccc3n2C)cc1 [DGT, dabigatran]
[1]
  increase in plasma level of Aβ42: up to 21.3 fold

## enoxaparin [EP]
FXII-FVII pathway [2]; 1 month of age, male and female
  effect of EP on coagulation factor activation in J20 mice: greatly attenuated the activation of FX, FII, FVII and FI
FXII-FVII pathway [2]; 3 and 6 months of age
  effect of EP on coagulation factor activation in J20 mice: strongly inhibited the activation of FX, FII, FVII and FI
  effect of EP on plasma FI level in WT littermates: slightly elevate FI level
FXII-FVII pathway [2]; 1 month of age
  effect of EP on plasma FI level in WT littermates: only slightly elevated FI level
[1]
  increase in plasma level of Aβ42: up to 73.3 fold
Plasma Aβ42; Aβ42, female
  ratio of EP-induced increase in plasma Aβ level in J20 mice over that in the WT littermates: 63.6
Plasma Aβ42; Aβ42, male
  ratio of EP-induced increase in plasma Aβ level in J20 mice over that in the WT littermates: 47.3
Plasma Aβ42; J20 mice, female
  increase in plasma level of Aβ42 after EP treatment: 4.7 fold
Plasma Aβ42; J20 mice, male
  increase in plasma level of Aβ42 after EP treatment: 4.3 fold
Plasma Aβ42; WT littermates, female
  increase in plasma level of Aβ42 after EP treatment: 1.6 fold
Plasma Aβ42; WT littermates, male
  increase in plasma level of Aβ42 after EP treatment: 1.7 fold
FXII-FVII pathway [3]
  effect of EP on Aβ40-induced activation of coagulation factors: prevents the activation of FX, FII, FVII and FI
[4]; Aβ40 40 μg/kg i.p. 1 h after last dose, blood 6 h later
  increase in plasma level of exogenously administered Aβ40: 77.4 fold
[4]; no Aβ40 injected
  elevation of plasma level of endogenous Aβ: 1.7 fold
[5]
  effect on brain astrocyte activation and Aβ accumulation: reduced brain astrocyte activation and Aβ accumulation
[6]
  effect on brain amyloid plaque load: significantly increased brain amyloid plaque load
Plasma Aβ40; Aβ40, female
  ratio of EP-induced increase in plasma Aβ level in J20 mice over that in the WT littermates: 40.1
Plasma Aβ40; Aβ40, male
  ratio of EP-induced increase in plasma Aβ level in J20 mice over that in the WT littermates: 45.7
Plasma Aβ40; J20 mice, female
  increase in plasma level of Aβ40 after EP treatment: 4.3 fold
Plasma Aβ40; J20 mice, male
  increase in plasma level of Aβ40 after EP treatment: 3.6 fold
Plasma Aβ40; WT littermates, female
  increase in plasma level of Aβ40 after EP treatment: 1.9 fold
Plasma Aβ40; WT littermates, male
  increase in plasma level of Aβ40 after EP treatment: 1.6 fold
Plasma Aβ; 1 month of age, female
  ratio of EP-induced increase in plasma Aβ level in J20 mice over that in the WT littermates: 8.7
Plasma Aβ; 1 month of age, male
  ratio of EP-induced increase in plasma Aβ level in J20 mice over that in the WT littermates: 9.3
Plasma Aβ; 3 months of age, female
  ratio of EP-induced increase in plasma Aβ level in J20 mice over that in the WT littermates: 56.9
Plasma Aβ; 3 months of age, male
  ratio of EP-induced increase in plasma Aβ level in J20 mice over that in the WT littermates: 47.5
Plasma Aβ; 6 months of age, female
  ratio of EP-induced increase in plasma Aβ level in J20 mice over that in the WT littermates: 51.2
Plasma Aβ; 6 months of age, male
  ratio of EP-induced increase in plasma Aβ level in J20 mice over that in the WT littermates: 40.4
Plasma Aβ; J20 mice, 1 month of age, male or female, n = 3
  increase in plasma Aβ concentration after EP treatment: 2.3 fold
Plasma Aβ; J20 mice, 3 months of age, female, n = 3
  increase in plasma Aβ level after EP treatment: 4.2 fold
Plasma Aβ; J20 mice, 3 months of age, male, n = 3
  increase in plasma Aβ level after EP treatment: 3.7 fold
Plasma Aβ; J20 mice, 6 months of age, female, n = 3
  increase in plasma Aβ level after EP treatment: 3.6 fold
Plasma Aβ; J20 mice, 6 months of age, male, n = 3
  increase in plasma Aβ level after EP treatment: 3.4 fold
Plasma Aβ; WT littermates, regardless of age or gender, blood 6 h after final treatment, n = 3
  elevation of plasma Aβ concentration: approximately 1.6 fold
